Results on six compounds are retold here after PMC6030209, “Structure-Activity Investigations and Optimisations of Non-metabolite Agonists for the Succinate Receptor 1” (Scientific Reports, 2018).

What is called kinetic solubility is the concentration staying in solution when a stock, usually in DMSO, is diluted into the medium. The term logD denotes lipophilicity at a set pH, counting ionised and neutral species.

In one series the target is T1, mSUCNR1 (Mus musculus, UniProt Q99MT6).
T1 construct: FLAG (own knowledge: pCMV-Tag 2B is an N-terminal FLAG vector); host or cells: HEK-293, transient transfection with Lipofectamine-2000
T1 sequence (Q99MT6 1-317): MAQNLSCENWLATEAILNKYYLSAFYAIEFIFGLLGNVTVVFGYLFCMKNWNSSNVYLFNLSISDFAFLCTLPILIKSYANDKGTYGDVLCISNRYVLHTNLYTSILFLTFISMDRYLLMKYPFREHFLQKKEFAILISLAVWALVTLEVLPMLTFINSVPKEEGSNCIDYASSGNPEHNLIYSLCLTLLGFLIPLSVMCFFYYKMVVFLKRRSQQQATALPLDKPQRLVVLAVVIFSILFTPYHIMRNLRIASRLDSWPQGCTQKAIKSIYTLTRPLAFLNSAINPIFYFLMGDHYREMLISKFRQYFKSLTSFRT
Description: IP3 turnover assay in mSUCNR1 transfected HEK-293 cells. It is filed as cell-based. Particulars: for mSUCNR1 efficacy, %: efficacy relative to succinate (100%), IP3 turnover, HEK cells (N = 3). As for the experimental part: (§1) Receptor constructs for mSUCNR1 and hSUCNR1 were bought from Origene and cloned into the eukaryotic expression vector pCMV-Tag(2B) (Stratagene).
(§2) Transient transfection of the HEK-293 cells was done with Lipofectamine-2000 according to manufacturer’s protocol. Cells were supplemented with fresh medium after 5 h.
(§3) 96-well plates were coated with poly-D-lysine and HEK-293 cells were plated (35.000 cells/well). Cells were transfected for 5 h the following day and subsequently incubated O/N with 0.5 μCi/mL myo[3H]inositol (Perkin Elmer) in 100 μL growth medium. On day 3 cells were washed with 200 µL HBSS/well (Gibco, Life Technologies) followed by a pre-incubation (30 min, 37 °C) with 100 µL HBSS supplemented with 10 mM LiCl. Cells were stimulated with ligand (120 min, 37 °C) and lysed with 50 µL 10 mM formic acid (30 min on ice). In a white 96 well plate 20 µL cell extracts and 80 µL 1:8 diluted YSi scintillation beads (Perkin Elmer) were mixed. The plate was spun down, and a Packard Top Count NXT counter recorded light emission (scintillation) after an 8 h delay.

The format of series [1] is in vitro ADME, mouse. The note with it: 1 hour, 1 μM, 0.5 mg/mL microsomes. As for the experimental part: Microsomal stability was studied in mouse liver microsomes (0.5 mg/mL) at a final test compound concentration of 1 μM and performed in triplicates in accordance to the published protocol. In short: Prewarmed (37 °C) 0.1 M PBS7.4, 10 mM NADPH in PBS7.4 and test compound (1 mM in DMSO) were added to an Eppendorf® Tube. The samples were incubated for 5 min at 37 °C before addition of newly thawned microsomes. The samples were mixed by gentle vortexing and incubated for 1 h at 37 °C, 300 rpm in an Eppendorf® Thermomixer. Samples were quenched by addition of ice-cold MeOH/MeCN (1:1) and centrifuged for 5 min at 10,000 g. The supernatant was transferred to HPLC vials and stored in the freezer until analysis by HPLC/UPLC. The metabolic stability was calculated based on a 0 min sample. All compounds were analysed in triplicates.

Series [2] is classed as in vitro ADME. Particulars: 2 hours, 37 °C; for stability in FaSSGF: simulated gastrointestinal fluid FaSSGF; for stability in FaSSIF: simulated gastrointestinal fluid FaSSIF. As for the experimental part: FaSSIF, FeSSGF and FaSSGF were prepared in accordance to the manufacturers procedure, Biorelevant.com. Triplicates of a 50 μM solution of the test compounds were prepared from a 10 mM stock solution in DMSO diluted with FaSSGF/FaSSIF/FeSSIF. The samples were incubated in an Eppendorf® Thermomixer (37 °C, 650 rpm). Samples were withdrawn at 0 min and 120 min, centrifuged (10 min at 10,000 rpm) and the supernatant analysed by HPLC/UPLC. The stability was calculated based on peak area of a 0 point sample.

The format of series [3] is physicochemical. Particulars: after 70 hours in 10 mM PBS7.4, 37 °C. On the procedure: Triplicates of a 50 μM solution of the test compounds were prepared from 0.01 M PBS7.4 and a 10 mM stock solution in DMSO. The samples were incubated in an Eppendorf® Thermomixer (37 °C, 650 rpm). The samples were briefly vortexed and 50 μL aliquots were withdrawn at the time points 0 h, 24 h, 48 h etc. and analysed immediately on UPLC. The chemical stability in PBS7.4 was determined at every time point in percentage relative to the 0 h time point.

Series [4] concerns SUCNR1. Description: Active/inactive grouping by EC50 threshold (ALiBERO training set, Table S1). The format is cell-based. Particulars: active (1) / inactive (0), EC50 threshold of 10 µM. The text has this: In brief, starting from the homology model supported by mutagenesis data[4], ALiBERO introduced receptor flexibility via Normal Mode Analysis and Monte Carlo sampling, to generate a small subset of receptor models (pockets). […] For a list of all compounds used in the optimisation protocol, see Table S1. Receptor structures were then chosen based on their ability to discriminate actives from inactives in a retrospective virtual screening using the docking protocol and scoring function in ICM (Molsoft L.L.C., San Diego, CA, USA)[20], as measured by the normalised square root area under the curve (NSQ_AUC). […] The ALiBERO-optimised receptor ensemble was subsequently validated in a virtual ligand screening using an external test set with a higher active:decoy ratio (~1:50).
ALiBERO is an iterative sampling-selection protocol for receptor optimisation that relies on the use of ligand information for selecting the best-performing receptor conformations. Homology models of the mouse SUCNR1 receptor were constructed according to Trauelsen et al.[4] and loaded into ICM (Molsoft L.L.C., San Diego, CA, USA). The structure was converted into an ICM object, thereby assigning protein atom types, optimising hydrogens and His, Pro, Asn, […] and Cys side-chain conformations. […] For a list of all compounds used in the optimisation protocol, see Table S1. ALiBERO was performed using the prepared receptor structure and ligand training set as input. Binding site residues were manually selected based on proximity to the position of MRS2500 in the superimposed structure of the P2Y1 receptor (PDB 4XNW). 100 elastic network normal mode analysis derived conformers were built in order to recreate backbone and side-chain flexibility (T = 300 K). Next, a flexible-ligand static-receptor small-scale virtual screening was performed on each of the receptor conformers, from which several pockets were selected for the following generation. The ligand and decoy molecules were docked into mSUCNR1, represented as pre-calculated potential grids and then sorted according to their ICM VLS scores. The maximum number of complementary pockets for each generation was set to 5 with a maximum of 10 generations. Receptor models were selected based on their combined screening performance, as determined by the normalised square root area under the curve, NSQ_AUC. After each round of virtual screening, an all-atom Monte Carlo side-chain refinement was performed to account for induced-by-ligand changes. NSQ_AUC values were calculated according to Katritch et al.[16].

Another series is described as follows: physchem. Particulars: pH 7.4, aqueous buffer, kinetic from dmso stock, 10 mM PBS7.4, 25 °C. The format is physicochemical. As for the experimental part:
Duplicates of a 200 μM solution of the dicarboxylic acids were prepared from 0.01 M PBS7.4 and a 10 mM stock solution in DMSO. The samples were incubated in an Eppendorf® Thermomixer (25 °C, 800 rpm) for 24 h. Afterwards, the samples were centrifuged for 5 min at 11,000 rpm and the supernatant was filtered (0.45 μm PTFE membrane) before analysis by HPLC. The solubility was calculated based on a concentration-absorption curve.

For a further series, the target named is T2, hSUCNR1 (Homo sapiens, UniProt Q9BXA5).
T2 construct: FLAG (own knowledge: pCMV-Tag 2B is an N-terminal FLAG vector); host or cells: HEK-293, transient transfection with Lipofectamine-2000
T2 sequence (Q9BXA5 1-334): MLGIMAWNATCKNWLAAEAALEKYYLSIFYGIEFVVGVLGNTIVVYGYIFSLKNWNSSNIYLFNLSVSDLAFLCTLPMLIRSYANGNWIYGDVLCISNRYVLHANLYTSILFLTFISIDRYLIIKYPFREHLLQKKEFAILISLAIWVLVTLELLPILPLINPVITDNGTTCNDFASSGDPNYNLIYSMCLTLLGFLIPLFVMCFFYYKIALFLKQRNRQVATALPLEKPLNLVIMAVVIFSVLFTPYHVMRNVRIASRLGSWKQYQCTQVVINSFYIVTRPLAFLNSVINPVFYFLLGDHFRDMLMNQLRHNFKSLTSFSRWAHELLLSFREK
Description: IP3 turnover assay in hSUCNR1 transfected HEK-293 cells. It is filed as cell-based. The note with it: for EC50: dose-response curves of induction of IP3 turnover in SUCNR1 transfected HEK cells (N = 3), read-out: hSUCNR1 pEC50 (converted); for hSUCNR1 efficacy, %: efficacy relative to succinate (100%), IP3 turnover, HEK cells (N = 3). On the procedure:
as §1, §2, §3

Series [5] is described as follows: logD7.4 determination (1-octanol/PBS7.4 shake flask). It is filed as physicochemical. Particulars: 1-octanol/PBS7.4, pH 7.4. On the procedure:
A glass vial with screw cap (8 mL) was charged with test compound (40 μL, 10 mM in DMSO), PBS7.4 (0.01 M, 1980 μL), and 1-octanol (1980 μL). The vial was capped and sealed with parafilm and shaken at 700 rpm using an IKA® KS 125 basic shaker for 24 h at room temperature. The parafilm was removed and the sample was allowed to equilibrate for 1 h before analysis. 100 μL of the octanol phase was withdrawn and diluted 1:10 with MeOH(+0.1% formic acid)/MilliQ water (4:1, v/v) and analysed by HPLC/UPLC. The interface was removed and the PBS7.4 phase analysed directly by HPLC/UPLC. All analysis was performed in duplicates and logD values were calculated from the peak areas (mAU*min) and adjusted for difference in injection volume and concentration-absorption effects from the solvents, using two calibration points per compound per solvent, and dilution of the octanol phase. All compounds were analysed in triplicates.

For series [6], the system named is SUCNR1. The note with it: full agonist on SUCNR1; cited from earlier work.
[7] abbreviates: dose-response curves of induction of IP3 turnover in SUCNR1 transfected HEK cells (N = 3), read-out: mSUCNR1 pEC50 (converted).

Where two headings read alike, the source gives them in different places. Some results are limits rather than exact numbers.

On to `CCOc1ccc(-c2ccc(C(=O)N[C@@H](CC(=O)O)C(=O)O)o2)cc1` [Compound 21, (5-(4-Ethoxyphenyl)furan-2-carbonyl)-L-aspartic acid], for which, at mSUCNR1, the EC50 is 36.3 nM and the “mSUCNR1 efficacy, %” value is given as 70.2 ± 2.0%. The “stability in mouse liver microsomes” value in series [1] is recorded as “stable”. Besides, in series [2], the “stability in FaSSGF” value is “stable” and the “stability in FaSSIF” value is reported as “stable”. Also, the “stability in FeSSIF” value in [2] (simulated gastrointestinal fluid FeSSIF) is on record as “stable”. In [3], this compound yielded a chemical stability above 98%. The Active in the series on SUCNR1 [4] is on record as 1 (active (1)). Also, in the series “physchem”, the kinetic solubility at 24 h is above 200 µM.

Take `COc1ccc(-c2cccc(C(=O)N[C@@H](CC(=O)O)C(=O)O)c2)cc1` [Compound 28, (4′-Methoxy-[1,1′-biphenyl]-3-carbonyl)-L-aspartic acid]: the EC50 on mSUCNR1 (setting [7]) is 1200 nM. Besides, on mSUCNR1, the “mSUCNR1 efficacy, %” value was 64.0 ± 2.5%. Moreover, in the series with SUCNR1 [4], the Active was 1 (active (1)). On hSUCNR1, the EC50 was 162 nM and the “hSUCNR1 efficacy, %” value came out at 58.0 ± 2.7%.

Consider `COc1ccc(-c2cccc(C(=O)N[C@@H](CC(=O)O)C(=O)O)n2)cc1` [Compound 29, (6-(4-Methoxyphenyl)picolinoyl)-L-aspartic acid], for which, on mSUCNR1 (setting [7]), the EC50 is 182 nM. The “mSUCNR1 efficacy, %” value on mSUCNR1 is given as 71.2 ± 3.2%. Also, the Active in the series with SUCNR1 [4] is listed as 1 (active (1)). In addition, at hSUCNR1, the EC50 was 141 nM and the “hSUCNR1 efficacy, %” value is recorded as 52.6 ± 3.9%.

Turning to `O=C(O)C[C@H](NC(=O)c1cccc(-c2ccc(OC(F)(F)F)cc2)c1)C(=O)O` [Compound 30, (4′-(Trifluoromethoxy)-[1,1′-biphenyl]-3-carbonyl)-L-aspartic acid], on mSUCNR1 (setting [7]), the EC50 was 1450 nM. Besides, at mSUCNR1, the “mSUCNR1 efficacy, %” value worked out at 45.3 ± 3.4%. Besides, the Active in the series on SUCNR1 [4] is reported as 1 (active (1)). Further, at hSUCNR1, the EC50 is 58.9 nM and the “hSUCNR1 efficacy, %” value came out at 49.2 ± 2.7%.

On to `O=C(O)C[C@H](NC(=O)c1cccc(-c2ccc(OC(F)(F)F)cc2)n1)C(=O)O` [Compound 31, (6-(4-(Trifluoromethoxy)phenyl)picolinoyl)-L-aspartic acid], for which, on mSUCNR1, the EC50 was 178 nM and the “mSUCNR1 efficacy, %” value was 69.9 ± 2.2%. This compound yielded a logD at 24 h in series [5] of -2.13. Besides, in series [1], the “stability in mouse liver microsomes” value is “stable”. In addition, in [2], the “stability in FaSSGF” value is given as “stable” and the “stability in FaSSIF” value is “stable”. The chemical stability in series [3] was above 98%. Further, in the series on SUCNR1 [4], the Active was 1 (active (1)). For the same compound, in the series “physchem”, the solubility (kinetic) at 24 h is above 200 µM.

Turning to cis-epoxysuccinic acid, the EC50 in the series with SUCNR1 [6] is 2700 nM.
